Test results published in patent publication US11266626B2, “Reduction of ER-MAM-localized APP-C99 and methods of treating alzheimer's disease” (THE TRUSTEES OF COLUMBIA UNIVERSITY IN THE CITY OF NEW YORK, priority 2015, dated 2022).
Entries after “also recorded” stand apart in the source; their conditions may differ.

Legend:
PS-DKO cells = experiment: Lipidomic analyses of membranes; assay type: cell-based, mouse; settings: for ceramide levels / sphingomyelin levels: PS-DKO cells, BI 100 nM or myriocin 5 μM
Experimental: (§1) Lipid extracts were prepared via chloroform-methanol extraction, spiked with appropriate internal standards, and analyzed using a 6490 Triple Quadrupole LC/MS system (Agilent Technologies, Santa Clara, Calif.) as described previously (6, 7). Glycerophospholipids and sphingolipids were separated with normal-phase HPLC using an Agilent Zorbax Rx-Sil column (inner diameter 2.1×100 mm) under the following conditions: mobile phase A (chloroform:methanol:1 M ammonium hydroxide, 89.9:10:0.1, v/v) and mobile phase B (chloroform:methanol:water:ammonium hydroxide, 55:39.9:5:0.1, v/v); 95% A for 2 min, linear gradient to 30% A over 18 min and held for 3 min, and linear gradient to 95% A over 2 min and held for 6 min. Quantification of lipid species was accomplished using multiple reaction monitoring (MRM) transitions that were developed in earlier studies (6) in conjunction with referencing of appropriate internal standards: ceramide d18:1/17:0 and sphingomyelin d18:1/12:0 (Avanti Polar Lipids, Alabaster, Ala.).
as §1, with “Lipids were extracted from equal amounts of material (30 μg protein/sample). Lipid extracts” for “Lipid extracts”, “described previously (Chan et al., 2012). Glycerophospholipids and” for “described previously (6, 7). Glycerophospholipids and”, “hydroxide, 89.9:10:0.1, v/v/v) and mobile” for “hydroxide, 89.9:10:0.1, v/v) and mobile”, “hydroxide, 55:39.9:5:0.1, v/v/v); 95% A” for “hydroxide, 55:39.9:5:0.1, v/v); 95% A”, “earlier studies (Chan et al., 2012) in conjunction” for “earlier studies (6) in conjunction”, “Alabaster, Ala.). Values are represented as mole fraction with respect to total lipid (% molarity)” for “Alabaster, Ala.).”
Lipids were extracted from equal amounts of material (30 μg protein/sample). Lipid extracts were prepared via chloroform-methanol extraction, spiked with appropriate internal standards, and analyzed using a 6490 Triple Quadrupole LC/MS system (Agilent Technologies, Santa Clara, Calif.) as described previously (Chan et al, 2012). Glycerophospholipids and sphingolipids were separated with normal-phase HPLC using an Agilent Zorbax Rx-Sil column (inner diameter 2.1×100 mm) under the following conditions: mobile phase A (chloroform:methanol:1 M ammonium hydroxide, 89.9:10:0.1, v/v/v) and mobile phase B (chloroform:methanol:water:ammonium hydroxide, 55:39.9:5:0.1, v/v/v/v); 95% A for 2 min, linear gradient to 30% A over 18 min and held for 3 min, and linear gradient to 95% A over 2 min and held for 6 min. Quantification of lipid species was accomplished using multiple reaction monitoring (MRM) transitions that were developed in earlier studies (Chan et al, 2012) in conjunction with referencing of appropriate internal standards: ceramide d18:1/17:0 and sphingomyelin d18:1/12:0 (Avanti Polar Lipids, Alabaster, Ala., USA). Values are represented as mole fraction with respect to total lipid (% molarity). For this, lipid mass (in moles) of any specific lipid is normalized by the total mass (in moles) of all the lipids measured (Chan et al, 2012). In addition, all of our results were further normalized by protein content.

SH-SY5Y cells = experiment: Staining of lipid droplets with LipidTox Green; assay type: cell-based, human; settings: DAPT 10 μM alone or with BI 100 nM
[1] = test system: acid (aSMase) and neutral (nSMase) sphingomyelinases; experiment: Analysis of sphingomyelinase activity; assay type: cell-based, human; settings: SH-SY5Y cells; DAPT 10 μM
Experimental: One hundred μg of protein were assayed in 100 mM of the appropriate buffer (Tris/glycine for pH 7.0-9.0 and sodium acetate for pH 4.0-5.0), 1.55 mM Triton X-100, 0.025% BSA, 1 mM MgCl2, and 400 μM bovine brain sphingomyelin spiked with 22000 dpm of [3H]-bovine sphingomyelin ([…]). Reactions were carried out in borosilicate glass culture tubes at 37° C., overnight, followed by quenching with 1.2 ml of ice-cold 10% trichloroacetic acid, incubation at 4° C. for 30 min, and centrifugation at 2000 rpm at 4° C. for 20 min. One ml of supernatant was transferred to clean tubes, 1 ml of ether was added, the mixture vortexed, and centrifuged at 2000 rpm for 5 min. Eight hundred μl of the bottom phase was transferred to scintillation vials, 5 ml of Scintiverse BD (Fisher Scientific, Fair Lawn, N.J.) was added, and samples were counted. […]
Reactions were carried out in borosilicate glass culture tubes at 37° C., overnight, followed by quenching with 1.2 ml of ice-cold 10% trichloroacetic acid, incubation at 4° C. for 30 min, and centrifugation at 2000 rpm at 4° C. for 20 min. […] Eight hundred μl of the bottom phase was transferred to scintillation vials, 5 ml of Scintiverse BD (Fisher Scientific, Fair Lawn, N.J.) was added, and samples were counted. […]

HeLa cells = experiment: Staining of lipid droplets with LipidTox Green; assay type: cell-based, human; settings: DAPT 10 μM alone or with BI 100 nM
Experimental: Staining of lipid droplets was performed using HCS LipidTox™ Deep Green neutral lipid stain (Invitrogen H34475) according to the manufacturer's instructions. Lipid droplet staining was quantified using ImageJ. The different values represent the product of the intensity and the area covered by the fluorescent signal above background in every cell examined.

C[C@@H](NC(=O)c1cc(C(=O)N[C@@H](Cc2ccccc2)[C@H](O)CNC2CC2)cc(N(C)S(C)(=O)=O)c1)c1ccccc1 [BI, β-secretase inhibitor IV]
ceramide levels (PS-DKO cells): reversing the alterations in both sphingomyelin (FIG. 46E) and ceramide
sphingomyelin levels (PS-DKO cells): reversing the alterations in both sphingomyelin
ceramide levels (PS-DKO cells; listed as BACE1 inhibitor): completely reversed the changes in SM and Cer levels
sphingomyelin levels (PS-DKO cells; listed as BACE1 inhibitor): completely reversed the changes in SM and Cer levels
PtdSer content of membranes (PS-DKO cells; PS-DKO membranes, BI): reduced the PtdSer content of PS-DKO membranes to control levels

C[C@H](NC(=O)Cc1cc(F)cc(F)c1)C(=O)N[C@H](C(=O)OC(C)(C)C)c1ccccc1 [DAPT]
accumulation of lipid droplets (LDs) (SH-SY5Y cells): LDs also accumulated; also recorded: Lipid droplets also accumulated
SMase activity [1]: significantly increased SMase activities; also recorded: increase in SMase activity
accumulation of lipid droplets (LDs) (HeLa cells): LDs also accumulated; also recorded: Lipid droplets also accumulated
